Measurements taken from the supplement of paper PMC10627819.

Key:
Assay in all cases: fitness (endpoint OD595 vs no drug) (fraction); higher = more growth
S. aureus DSM 20231 = tested on: S. aureus DSM 20231
Method in brief: (§1)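 Fitness is computed from the optical density at which cultures reach stationary phase, divided by the robust mean of no-drug control wells. Any value above 1 is set to 1. Cultures started at OD595 0.01 in 384-well plates with TSB, LB Lennox or CY at 37 °C, and OD595 was read every 30 min for 14 h against a first-reading background.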

S. aureus Newman = tested on: S. aureus Newman
Method in brief: as §1

B. subtilis 168 = tested on: B. subtilis 168
Method in brief: as §1
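Further: OD595 on entry to stationary phase over no-drug wells; at most 1.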

N[C@@H]1CONC1=O [Cycloserine D] + COc1cccc2c1C(=O)c1c(O)c3c(c(O)c1C2=O)C[C@@](O)(C(=O)CO)C[C@@H]3O[C@H]1C[C@H](N)[C@H](O)[C@H](C)O1 [Doxorubicin]
fitness
Conditions | first compound 0.125 µg/mL | first compound 0.25 µg/mL | first compound 0.375 µg/mL | first compound 0.5 µg/mL | first compound 0.75 µg/mL | first compound 1.5 µg/mL
B. subtilis 168, partner 0.625 µg/mL | 0.976 | 0.959 | – | 0.921 | – | –
B. subtilis 168, partner 1.25 µg/mL | 0.919 | 0.939 | – | 0.891 | – | –
B. subtilis 168, partner 2.5 µg/mL | 0.754 | 0.704 | – | 0.722 | – | –
S. aureus DSM 20231, partner 0.625 µg/mL | – | – | 0.942 | – | 0.898 | 0.905
S. aureus DSM 20231, partner 1.25 µg/mL | – | – | 0.867 | – | 0.891 | 0.953
S. aureus DSM 20231, partner 2.5 µg/mL | – | – | 0.861 | – | 0.841 | 0.774
S. aureus Newman, partner 0.625 µg/mL | – | – | 0.796 | – | 0.809 | 0.827
S. aureus Newman, partner 1.25 µg/mL | – | – | 0.797 | – | 0.797 | 0.799
S. aureus Newman, partner 2.5 µg/mL | – | – | 0.748 | – | 0.75 | 0.771

N[C@@H]1CONC1=O [Cycloserine D] + C[C@@H]1O[C@@H]1P(=O)(O)O [Fosfomycin]
fitness
Conditions | first compound 0.125 µg/mL | first compound 0.25 µg/mL | first compound 0.375 µg/mL | first compound 0.5 µg/mL | first compound 0.75 µg/mL | first compound 1.5 µg/mL
B. subtilis 168, partner 1.562 µg/mL | 0.71 | 0.666 | – | 0.679 | – | –
B. subtilis 168, partner 3.124 µg/mL | 0.608 | 0.583 | – | 0.592 | – | –
B. subtilis 168, partner 6.248 µg/mL | 0.479 | 0.504 | – | 0.453 | – | –
S. aureus DSM 20231, partner 0.781 µg/mL | – | – | 0.724 | – | 0.703 | 0.764
S. aureus DSM 20231, partner 1.562 µg/mL | – | – | 0.586 | – | 0.577 | 0.597
S. aureus DSM 20231, partner 3.124 µg/mL | – | – | 0.451 | – | 0.471 | 0.481
S. aureus Newman, partner 0.781 µg/mL | – | – | 0.64 | – | 0.623 | 0.669
S. aureus Newman, partner 1.562 µg/mL | – | – | 0.516 | – | 0.518 | 0.514
S. aureus Newman, partner 3.124 µg/mL | – | – | 0.165 | – | 0.201 | 0.172

N[C@@H]1CONC1=O [Cycloserine D] + C[n+]1ccc(-c2cc[n+](C)cc2)cc1 [Paraquat]
fitness
Conditions | first compound 0.125 µg/mL | first compound 0.25 µg/mL | first compound 0.375 µg/mL | first compound 0.5 µg/mL | first compound 0.75 µg/mL | first compound 1.5 µg/mL
B. subtilis 168, partner 1.25 µg/mL | 0.939 | 0.919 | – | 0.958 | – | –
B. subtilis 168, partner 2.5 µg/mL | 0.911 | 0.905 | – | 0.899 | – | –
B. subtilis 168, partner 5 µg/mL | 0.842 | 0.787 | – | 0.746 | – | –
S. aureus DSM 20231, partner 1.25 µg/mL | – | – | 0.976 | – | 0.978 | 0.964
S. aureus DSM 20231, partner 2.5 µg/mL | – | – | ≥ 1 | – | 0.977 | ≥ 1
S. aureus DSM 20231, partner 5 µg/mL | – | – | 0.977 | – | 0.983 | 0.965
S. aureus Newman, partner 1.25 µg/mL | – | – | 0.962 | – | 0.871 | 0.899
S. aureus Newman, partner 2.5 µg/mL | – | – | 0.979 | – | 0.966 | 0.984
S. aureus Newman, partner 5 µg/mL | – | – | 0.938 | – | 0.969 | 0.93
